ChEMBL document CHEMBL1201862, “PubChem BioAssay data set” (2004)
Calls of active or inactive are those of the source.

What was measured:
[1] = biological target: T1, High affinity choline transporter 1 (Homo sapiens, UniProt Q9GZV3); experiment: CHT inhibitors, dose response, cell-based, 10-point CRC, membrane potential dye (AID 588401); type: functional;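 further: membrane potential dye fluorescence of choline-evoked depolarization via CHT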
T1 sequence (Q9GZV3 whole entry): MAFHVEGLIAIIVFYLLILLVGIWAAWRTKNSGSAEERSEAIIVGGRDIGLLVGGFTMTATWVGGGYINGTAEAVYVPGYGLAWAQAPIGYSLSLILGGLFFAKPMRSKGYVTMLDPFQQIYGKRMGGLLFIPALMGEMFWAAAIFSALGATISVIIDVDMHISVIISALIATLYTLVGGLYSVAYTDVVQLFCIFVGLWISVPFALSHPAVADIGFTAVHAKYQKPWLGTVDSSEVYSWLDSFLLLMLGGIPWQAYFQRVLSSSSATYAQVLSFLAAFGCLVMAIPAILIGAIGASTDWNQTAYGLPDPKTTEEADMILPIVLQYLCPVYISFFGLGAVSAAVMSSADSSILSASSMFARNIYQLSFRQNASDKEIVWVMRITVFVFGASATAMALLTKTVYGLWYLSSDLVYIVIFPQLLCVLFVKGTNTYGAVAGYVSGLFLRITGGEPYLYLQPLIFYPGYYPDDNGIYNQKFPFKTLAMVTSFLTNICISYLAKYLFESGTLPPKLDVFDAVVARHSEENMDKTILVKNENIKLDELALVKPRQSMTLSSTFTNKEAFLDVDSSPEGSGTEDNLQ

[2] = biological target: T1, High affinity choline transporter 1; experiment: CHT inhibitors, dose response, cell-based, 5-point CRC, membrane potential dye (AID 504840); type: functional
[3] = biological target: Protein disulfide-isomerase (Homo sapiens, UniProt P07237); experiment: PDI inhibitors, insulin aggregation turbidity, dose response, biochemical, absorbance, cherry-picked samples (AID 602350); type: functional
Protein disulfide-isomerase, sequence (P07237 whole entry): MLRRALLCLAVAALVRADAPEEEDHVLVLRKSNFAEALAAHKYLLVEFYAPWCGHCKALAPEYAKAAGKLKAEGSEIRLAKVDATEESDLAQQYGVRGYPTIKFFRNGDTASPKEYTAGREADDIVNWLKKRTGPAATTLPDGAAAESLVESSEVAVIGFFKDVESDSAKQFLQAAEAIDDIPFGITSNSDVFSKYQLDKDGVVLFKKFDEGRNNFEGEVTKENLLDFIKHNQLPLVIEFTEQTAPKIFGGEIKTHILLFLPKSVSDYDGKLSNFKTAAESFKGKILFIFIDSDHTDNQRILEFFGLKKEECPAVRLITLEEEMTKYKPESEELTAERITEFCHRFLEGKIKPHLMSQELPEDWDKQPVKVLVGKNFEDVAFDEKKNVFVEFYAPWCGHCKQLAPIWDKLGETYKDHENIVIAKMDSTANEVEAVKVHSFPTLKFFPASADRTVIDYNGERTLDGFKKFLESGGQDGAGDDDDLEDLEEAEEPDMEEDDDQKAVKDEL

[4] = biological target: Genome polyprotein (dengue virus type 2, UniProt P29990); experiment: Dengue-2 NS5 methyltransferase inhibitors, primary screen, biochemical, confirmation dose response (AID 588689); type: functional
[5] = biological target: T2, Probable nicotinate-nucleotide adenylyltransferase (Staphylococcus aureus (strain N315), UniProt P65502); type: functional, Staphylococcus aureus subsp. aureus N315;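 on IC50 Mean: confirmatory dose-response retesting of NadD inhibitor hits first found in an ultra-high-throughput screen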
T2 sequence (P65502 whole entry): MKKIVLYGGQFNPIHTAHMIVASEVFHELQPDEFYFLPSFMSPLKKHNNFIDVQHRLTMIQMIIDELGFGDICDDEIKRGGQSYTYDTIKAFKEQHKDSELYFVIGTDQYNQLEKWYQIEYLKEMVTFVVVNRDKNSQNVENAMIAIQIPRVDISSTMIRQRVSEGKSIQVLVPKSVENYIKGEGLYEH

[6] = biological target: T3, Aminopeptidase N (Plasmodium falciparum FcB1/Columbia, UniProt O96935); experiment: P. falciparum M1AAP inhibitors, biochemical, fluorogenic H-Leu-NHMec substrate, 1536-well (AID 1445); design: species or system Plasmodium falciparum 3D7, 3D7
T3 sequence (O96935 whole entry): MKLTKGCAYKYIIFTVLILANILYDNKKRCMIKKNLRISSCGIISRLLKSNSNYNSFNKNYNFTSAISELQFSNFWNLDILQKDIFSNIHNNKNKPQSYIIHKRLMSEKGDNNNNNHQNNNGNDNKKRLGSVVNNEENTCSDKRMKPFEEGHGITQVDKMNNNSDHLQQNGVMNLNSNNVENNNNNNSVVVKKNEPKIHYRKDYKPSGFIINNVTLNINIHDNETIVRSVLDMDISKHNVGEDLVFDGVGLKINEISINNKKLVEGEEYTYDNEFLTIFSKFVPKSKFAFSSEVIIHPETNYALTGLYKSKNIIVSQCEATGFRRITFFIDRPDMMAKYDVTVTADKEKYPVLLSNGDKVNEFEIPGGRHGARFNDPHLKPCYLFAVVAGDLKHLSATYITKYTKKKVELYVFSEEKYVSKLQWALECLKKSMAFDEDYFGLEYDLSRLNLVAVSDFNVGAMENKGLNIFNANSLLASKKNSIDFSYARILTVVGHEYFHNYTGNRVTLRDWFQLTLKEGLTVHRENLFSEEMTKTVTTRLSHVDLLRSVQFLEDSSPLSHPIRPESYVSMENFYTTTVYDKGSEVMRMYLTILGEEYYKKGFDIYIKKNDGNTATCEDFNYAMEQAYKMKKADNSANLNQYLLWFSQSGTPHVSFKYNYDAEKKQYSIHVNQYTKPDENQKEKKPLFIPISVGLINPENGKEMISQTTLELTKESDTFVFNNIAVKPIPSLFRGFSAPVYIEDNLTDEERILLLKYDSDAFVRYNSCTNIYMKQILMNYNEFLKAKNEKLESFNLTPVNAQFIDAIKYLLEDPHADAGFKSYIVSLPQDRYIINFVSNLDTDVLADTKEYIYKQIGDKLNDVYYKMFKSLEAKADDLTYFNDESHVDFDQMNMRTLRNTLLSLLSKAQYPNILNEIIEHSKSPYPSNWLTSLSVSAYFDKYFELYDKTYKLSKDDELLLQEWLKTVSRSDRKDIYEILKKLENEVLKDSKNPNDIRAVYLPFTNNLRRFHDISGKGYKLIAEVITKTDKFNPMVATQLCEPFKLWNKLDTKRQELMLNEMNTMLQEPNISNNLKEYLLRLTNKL

[7] = biological target: T2, Probable nicotinate-nucleotide adenylyltransferase; type: functional, Staphylococcus aureus subsp. aureus N315; details: read-out: IC50_Mean
[8] = biological target: Prothrombin (Bos taurus, UniProt P00735); experiment: thrombin inhibition, dose response, biochemical, fluorescence polarization, uHTS hits (AID 602369); type: functional
[9] = biological target: 72 kDa type IV collagenase (Homo sapiens, UniProt P08253); experiment: Dose Response validation of uHTS RPN11 inhibitor hits using a MMP-2 Fluorescence assay.; type: functional
72 kDa type IV collagenase, sequence (P08253 whole entry): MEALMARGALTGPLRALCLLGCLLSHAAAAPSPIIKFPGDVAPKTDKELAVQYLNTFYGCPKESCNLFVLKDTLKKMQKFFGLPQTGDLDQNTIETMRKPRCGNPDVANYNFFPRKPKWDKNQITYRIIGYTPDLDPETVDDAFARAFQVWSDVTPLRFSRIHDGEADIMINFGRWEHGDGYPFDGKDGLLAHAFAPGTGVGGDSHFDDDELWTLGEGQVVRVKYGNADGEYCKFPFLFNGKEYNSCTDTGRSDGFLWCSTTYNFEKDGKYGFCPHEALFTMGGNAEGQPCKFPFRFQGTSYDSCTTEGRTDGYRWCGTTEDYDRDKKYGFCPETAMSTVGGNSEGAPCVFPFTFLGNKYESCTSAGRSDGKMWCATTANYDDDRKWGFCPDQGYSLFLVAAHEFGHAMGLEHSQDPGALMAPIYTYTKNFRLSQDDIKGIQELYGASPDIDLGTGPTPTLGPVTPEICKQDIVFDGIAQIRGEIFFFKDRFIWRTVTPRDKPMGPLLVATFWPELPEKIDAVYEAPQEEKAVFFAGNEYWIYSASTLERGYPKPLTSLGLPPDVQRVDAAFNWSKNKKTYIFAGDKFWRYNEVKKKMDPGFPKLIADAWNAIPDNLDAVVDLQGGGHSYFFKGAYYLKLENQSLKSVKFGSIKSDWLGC

[10] = biological target: 26S proteasome non-ATPase regulatory subunit 14 (Homo sapiens, UniProt O00487); experiment: inhibition of proteasome subunit RPN11 – biochemical, fluorescence polarization, uHTS hits, confirmation (AID 602368); type: functional
26S proteasome non-ATPase regulatory subunit 14, sequence (O00487 whole entry, the tested form may be a part): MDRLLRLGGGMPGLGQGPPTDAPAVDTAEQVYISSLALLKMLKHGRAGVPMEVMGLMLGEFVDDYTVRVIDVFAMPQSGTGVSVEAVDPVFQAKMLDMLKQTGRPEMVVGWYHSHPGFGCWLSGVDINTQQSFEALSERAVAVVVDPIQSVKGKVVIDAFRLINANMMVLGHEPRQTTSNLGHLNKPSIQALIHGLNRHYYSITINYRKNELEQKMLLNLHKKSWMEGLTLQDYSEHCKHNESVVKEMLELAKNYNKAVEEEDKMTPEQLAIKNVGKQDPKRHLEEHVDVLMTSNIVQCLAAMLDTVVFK

[11] = biological target: Hepatocyte nuclear factor 4-alpha (Homo sapiens, UniProt P41235); type: functional, cell-based;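 further: biochemical luminescence-based dose-response counterscreen measuring inhibition of HNF4 dimerization, run alongside a screen for blockers of ABHD5–perilipin-5 interaction; split luciferase complementation of HNF4 fusion proteins in cell lysate measuring dimerization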
Hepatocyte nuclear factor 4-alpha, sequence (P41235 whole entry, the tested form may be a part): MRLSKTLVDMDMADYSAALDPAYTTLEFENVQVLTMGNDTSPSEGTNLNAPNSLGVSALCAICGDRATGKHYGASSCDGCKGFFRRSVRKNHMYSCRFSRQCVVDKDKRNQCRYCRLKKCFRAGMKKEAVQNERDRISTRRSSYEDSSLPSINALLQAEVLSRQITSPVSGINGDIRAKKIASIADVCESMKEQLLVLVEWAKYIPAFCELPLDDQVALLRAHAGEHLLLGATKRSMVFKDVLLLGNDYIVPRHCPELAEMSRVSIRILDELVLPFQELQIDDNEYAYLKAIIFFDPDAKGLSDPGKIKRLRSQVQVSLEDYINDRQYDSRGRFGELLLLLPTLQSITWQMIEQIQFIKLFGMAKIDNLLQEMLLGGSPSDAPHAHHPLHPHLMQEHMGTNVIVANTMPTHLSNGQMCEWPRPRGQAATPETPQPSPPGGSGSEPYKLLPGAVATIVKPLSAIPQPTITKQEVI

[12] = biological target: T4, Histone-lysine N-methyltransferase NSD2 (Homo sapiens, UniProt O96028); type: biochemical
T4 sequence (O96028 whole entry): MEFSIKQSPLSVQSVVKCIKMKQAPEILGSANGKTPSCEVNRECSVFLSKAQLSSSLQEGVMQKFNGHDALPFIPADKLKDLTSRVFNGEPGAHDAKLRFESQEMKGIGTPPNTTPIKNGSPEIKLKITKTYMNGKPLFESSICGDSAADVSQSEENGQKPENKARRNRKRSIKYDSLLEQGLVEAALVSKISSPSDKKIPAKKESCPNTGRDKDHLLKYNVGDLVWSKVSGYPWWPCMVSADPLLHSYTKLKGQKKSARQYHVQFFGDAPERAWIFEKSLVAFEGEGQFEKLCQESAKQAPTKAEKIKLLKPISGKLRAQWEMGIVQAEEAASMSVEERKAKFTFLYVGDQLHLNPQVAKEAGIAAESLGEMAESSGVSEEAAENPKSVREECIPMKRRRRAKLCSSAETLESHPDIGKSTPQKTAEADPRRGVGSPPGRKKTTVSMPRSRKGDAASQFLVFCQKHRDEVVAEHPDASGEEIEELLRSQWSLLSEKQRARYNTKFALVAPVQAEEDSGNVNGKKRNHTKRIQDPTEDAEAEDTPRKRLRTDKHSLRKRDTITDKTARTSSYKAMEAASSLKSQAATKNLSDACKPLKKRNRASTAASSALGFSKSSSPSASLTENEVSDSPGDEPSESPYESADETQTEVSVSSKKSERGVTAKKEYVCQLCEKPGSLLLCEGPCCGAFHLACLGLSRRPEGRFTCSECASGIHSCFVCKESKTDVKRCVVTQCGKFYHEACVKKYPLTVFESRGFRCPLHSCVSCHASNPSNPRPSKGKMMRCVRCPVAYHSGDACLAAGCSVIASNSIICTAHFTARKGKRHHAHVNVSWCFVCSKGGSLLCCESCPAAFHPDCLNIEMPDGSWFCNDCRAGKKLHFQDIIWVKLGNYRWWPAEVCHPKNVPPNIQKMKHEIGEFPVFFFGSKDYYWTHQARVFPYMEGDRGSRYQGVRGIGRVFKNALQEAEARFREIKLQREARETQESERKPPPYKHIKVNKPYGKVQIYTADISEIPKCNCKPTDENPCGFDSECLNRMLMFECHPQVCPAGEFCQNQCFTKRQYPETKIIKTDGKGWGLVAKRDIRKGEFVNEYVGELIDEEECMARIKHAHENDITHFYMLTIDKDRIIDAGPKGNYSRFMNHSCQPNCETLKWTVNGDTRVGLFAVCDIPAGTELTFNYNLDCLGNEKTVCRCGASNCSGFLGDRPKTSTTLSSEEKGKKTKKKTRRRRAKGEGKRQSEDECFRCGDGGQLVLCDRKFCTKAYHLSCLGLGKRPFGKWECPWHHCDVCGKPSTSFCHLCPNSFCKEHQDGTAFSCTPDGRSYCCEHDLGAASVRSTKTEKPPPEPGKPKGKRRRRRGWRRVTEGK

[13] = biological target: DNA (cytosine-5)-methyltransferase 1 (Homo sapiens, UniProt P26358); experiment: DNMT1 methyltransferase inhibitors, confirmation, biochemical, fluorescent molecular beacon (AID 602386); type: functional
DNA (cytosine-5)-methyltransferase 1, sequence (P26358 whole entry): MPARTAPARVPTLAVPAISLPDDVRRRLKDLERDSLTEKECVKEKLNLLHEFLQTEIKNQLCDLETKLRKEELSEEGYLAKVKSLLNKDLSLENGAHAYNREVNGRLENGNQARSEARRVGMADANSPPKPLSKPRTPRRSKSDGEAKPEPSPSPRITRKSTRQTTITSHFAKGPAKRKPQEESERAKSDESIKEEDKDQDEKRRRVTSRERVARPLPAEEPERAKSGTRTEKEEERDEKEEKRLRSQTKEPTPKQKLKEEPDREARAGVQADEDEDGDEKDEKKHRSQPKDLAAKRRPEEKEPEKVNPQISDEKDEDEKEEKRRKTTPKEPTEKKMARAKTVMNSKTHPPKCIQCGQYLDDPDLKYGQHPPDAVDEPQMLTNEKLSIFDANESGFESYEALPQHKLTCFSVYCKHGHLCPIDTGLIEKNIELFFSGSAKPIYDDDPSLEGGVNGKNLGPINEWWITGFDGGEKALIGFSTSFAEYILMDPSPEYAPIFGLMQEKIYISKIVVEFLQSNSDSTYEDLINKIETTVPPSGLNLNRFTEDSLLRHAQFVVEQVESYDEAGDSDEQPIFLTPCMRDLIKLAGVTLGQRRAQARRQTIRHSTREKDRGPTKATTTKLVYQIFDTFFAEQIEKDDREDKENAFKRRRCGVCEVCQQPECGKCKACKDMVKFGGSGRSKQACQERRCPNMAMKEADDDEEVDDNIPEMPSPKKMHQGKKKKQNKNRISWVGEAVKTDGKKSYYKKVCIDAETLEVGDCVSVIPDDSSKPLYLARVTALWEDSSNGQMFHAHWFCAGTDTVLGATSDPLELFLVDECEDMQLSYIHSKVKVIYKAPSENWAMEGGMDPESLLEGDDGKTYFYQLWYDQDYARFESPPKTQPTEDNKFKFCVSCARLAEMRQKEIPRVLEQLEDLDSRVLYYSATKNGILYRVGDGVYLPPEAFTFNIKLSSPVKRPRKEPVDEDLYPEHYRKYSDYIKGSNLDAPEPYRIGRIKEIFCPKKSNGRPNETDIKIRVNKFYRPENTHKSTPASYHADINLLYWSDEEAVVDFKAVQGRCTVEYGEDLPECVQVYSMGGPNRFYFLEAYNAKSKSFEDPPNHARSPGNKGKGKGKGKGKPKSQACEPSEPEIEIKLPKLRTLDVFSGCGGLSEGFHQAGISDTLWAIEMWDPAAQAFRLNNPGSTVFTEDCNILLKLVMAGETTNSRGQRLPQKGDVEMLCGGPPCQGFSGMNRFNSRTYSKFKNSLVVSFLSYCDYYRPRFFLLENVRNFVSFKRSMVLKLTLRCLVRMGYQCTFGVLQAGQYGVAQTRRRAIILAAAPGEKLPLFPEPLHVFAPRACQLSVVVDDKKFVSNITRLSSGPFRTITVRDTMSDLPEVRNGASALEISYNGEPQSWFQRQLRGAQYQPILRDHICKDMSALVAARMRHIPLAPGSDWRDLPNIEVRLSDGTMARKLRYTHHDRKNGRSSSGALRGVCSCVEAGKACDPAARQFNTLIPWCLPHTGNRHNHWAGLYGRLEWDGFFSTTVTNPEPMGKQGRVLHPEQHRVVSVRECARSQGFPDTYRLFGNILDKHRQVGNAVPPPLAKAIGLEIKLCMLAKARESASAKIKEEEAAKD

[14] = biological target: Adenosylmethionine-8-amino-7-oxononanoate aminotransferase (Mycobacterium tuberculosis, UniProt P9WQ81); experiment: Mycobacterium tuberculosis BioA enzyme inhibitor Measured in Biochemical System Using Plate Reader - 2163-02_Inhibitor_Dose_CherryPick_Activity.; type: functional, Mycobacterium tuberculosis UT205
Adenosylmethionine-8-amino-7-oxononanoate aminotransferase, sequence (P9WQ81 whole entry): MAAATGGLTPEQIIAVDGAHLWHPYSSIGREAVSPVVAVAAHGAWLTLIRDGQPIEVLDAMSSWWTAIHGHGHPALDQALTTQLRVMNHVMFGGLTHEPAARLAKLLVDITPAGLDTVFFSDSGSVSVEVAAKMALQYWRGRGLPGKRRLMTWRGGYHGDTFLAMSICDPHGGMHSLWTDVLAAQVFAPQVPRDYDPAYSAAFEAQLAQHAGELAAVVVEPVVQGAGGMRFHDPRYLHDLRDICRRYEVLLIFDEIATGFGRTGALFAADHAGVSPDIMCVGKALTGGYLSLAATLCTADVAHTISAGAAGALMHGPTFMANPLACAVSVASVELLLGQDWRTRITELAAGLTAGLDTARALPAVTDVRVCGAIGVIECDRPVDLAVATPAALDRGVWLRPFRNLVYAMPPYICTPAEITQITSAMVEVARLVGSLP

[15] = Counterscreen for inhibitors of Trypanosoma brucei methionyl tRNA synthetase (MetRS): Luminescence-based cell-based high throughput dose response assay to identify compounds that are cytotoxic to Jurkat human T lymphocyte cells.; type: functional
[16] = biological target: T5, DNA repair and recombination protein RAD54-like (Homo sapiens, UniProt Q92698); experiment: inhibitors of human RAD54 branch migration, confirmation, biochemical, fluorescence, cherry-picked samples, dose series (AID 651657); type: functional
T5 sequence (Q92698 whole entry): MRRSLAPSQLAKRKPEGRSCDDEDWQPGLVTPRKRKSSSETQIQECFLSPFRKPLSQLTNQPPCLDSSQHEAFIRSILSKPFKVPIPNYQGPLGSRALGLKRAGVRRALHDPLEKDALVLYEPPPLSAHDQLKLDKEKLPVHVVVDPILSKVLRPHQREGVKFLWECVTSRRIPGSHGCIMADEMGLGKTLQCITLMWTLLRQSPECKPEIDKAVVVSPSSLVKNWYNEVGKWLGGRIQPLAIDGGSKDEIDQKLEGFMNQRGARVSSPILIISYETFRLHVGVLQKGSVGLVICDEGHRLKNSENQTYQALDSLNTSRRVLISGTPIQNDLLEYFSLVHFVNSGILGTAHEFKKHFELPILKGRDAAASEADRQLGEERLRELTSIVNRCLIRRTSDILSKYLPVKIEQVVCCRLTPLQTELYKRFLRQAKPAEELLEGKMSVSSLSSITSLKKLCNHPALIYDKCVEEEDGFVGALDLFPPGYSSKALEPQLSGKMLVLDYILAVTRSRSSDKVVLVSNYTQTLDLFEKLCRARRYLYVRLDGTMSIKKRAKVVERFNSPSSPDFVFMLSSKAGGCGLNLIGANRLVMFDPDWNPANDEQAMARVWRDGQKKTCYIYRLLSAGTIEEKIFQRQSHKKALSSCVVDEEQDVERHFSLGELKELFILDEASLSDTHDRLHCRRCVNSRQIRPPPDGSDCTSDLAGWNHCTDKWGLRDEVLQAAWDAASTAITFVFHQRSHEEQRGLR

COc1ccc(C2=NN(c3ccc(C(=O)O)cc3)C(c3ccc(OC)c(OC)c3)C2)cc1 (stereo not given)
IC50 [1]: 3.55 µM (active) | IC50 [2]: 4.79 µM (active)

CC(=O)OC[C@H]1O[C@@H](Oc2cc(O)cc3oc(-c4ccc(O)cc4)cc(=O)c23)[C@H](O[C@@H]2O[C@@H](C)[C@H](O)[C@@H](O)[C@H]2O)[C@@H](O)[C@@H]1O
AC50 [3]: 19.5 µM (active)

CCCOc1ccc(C(=O)N/N=C/c2ccc(-c3ccc(S(=O)(=O)Nc4ncccn4)cc3)o2)cc1
IC50 [4]: > 100 µM (active) | IC50 [5]: 6.45 µM (active) | IC50 [6]: 26.1 µM (active) | IC50 [7]: 31 µM (active)

O=C(Nc1nc(-c2ccc(F)c(F)c2)cs1)Nc1ccc(F)cc1F
IC50 [8]: 78.3 µM (active) | IC50 [9]: > 100 µM (inactive) | IC50 [10]: 30.3 µM (active)

COc1cccc(/C=C(/CC(=O)Nc2ccc(N3CCOCC3)cc2)c2nc3ccccc3s2)c1
IC50 [8]: 25 µM (active) | IC50 [9]: > 100 µM (inactive) | IC50 [10]: 12.6 µM (active)

Cc1cccc(C)c1NC(=O)C(c1ccc(C#N)cc1)n1c(=O)c(-c2ccco2)nc2ccccc21 (stereo not given)
IC50 [11]: 1.86 µM (active)

CC1=C/C(=C\c2ccc(Br)o2)C(=O)O1
AC50 [12]: 4.71 µM (active) | IC50 [13]: 4.99 µM (active)

Cc1cc(C(=O)NC2CC(C)(C)Cc3c2cnn3-c2cccc(F)c2)nn1C (stereo not given)
AC50 [14]: 2.72 µM (active)

C=C1C(=O)O[C@H]2C[C@H]1[C@@H](OC(C)=O)C/C(C)=C/CC/C(C)=C\CC[C@]2(C)O
IC50 [11]: 3.21 µM (active)

Cc1cccc(NS(=O)(=O)c2ccc3[nH]c(-c4ccccc4)nc3c2)c1C
IC50 [15]: 25.1 µM (inactive)

N=C1CCCN1CC(=O)c1ccc(Cl)cc1
IC50 [1]: 2.7 µM (active) | IC50 [2]: 6.01 µM (active)

CN1CCN(c2[nH]cnc3c4cc(F)ccc4nc2-3)CC1
AC50 [14]: 2.8 µM (active) | AC50 [16]: 28.8 µM (active)

O=C(OCCCOc1ccc(F)cc1)c1ccc(O)cc1O
IC50 [1]: 4.47 µM (active) | IC50 [2]: 3.59 µM (active)
